The values that follow come from patent US11517577B2, “Fluorinated bile acid derivatives” (NZP UK LIMITED, priority 2018, dated 2022).

In data set [1] the target is T1, Human Farnesoid X Receptor (NR1H4, FXR) (Homo sapiens, UniProt Q96RI1).
T1 sequence (Q96RI1 1-486): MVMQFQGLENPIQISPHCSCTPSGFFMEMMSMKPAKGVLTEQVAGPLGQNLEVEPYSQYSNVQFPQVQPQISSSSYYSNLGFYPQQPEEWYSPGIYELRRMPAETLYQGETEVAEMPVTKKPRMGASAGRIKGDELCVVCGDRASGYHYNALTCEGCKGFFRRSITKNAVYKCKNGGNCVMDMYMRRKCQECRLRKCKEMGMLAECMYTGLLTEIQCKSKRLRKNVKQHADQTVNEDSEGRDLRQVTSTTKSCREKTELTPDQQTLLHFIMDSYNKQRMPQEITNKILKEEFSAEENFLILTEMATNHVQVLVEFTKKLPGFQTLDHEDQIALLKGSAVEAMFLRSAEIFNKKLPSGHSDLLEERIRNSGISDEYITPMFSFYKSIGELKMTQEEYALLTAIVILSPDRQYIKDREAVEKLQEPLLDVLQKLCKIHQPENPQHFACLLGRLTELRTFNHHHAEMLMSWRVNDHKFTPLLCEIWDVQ
As to the kind of experiment: FXR reporter assay, EC50 and efficacy (Indigo Biosciences luciferase reporter cells). To be noted: for Efficacy: maximum point on the dose response curve, GW4064 designated as 100%. Type of data set: cell-based. How it is done: The compounds of the invention were assayed for agonist activity at the FXR receptor.
Dose-response assays were performed as described in the technical manual of the Human Farnesoid X Receptor (NR1H4, FXR) Reporter Assay System (Indigo Biosciences Human Farnesoid X Receptor (NR1H4, FXR) Reporter Assay System, Technical Manual (version 7.1b), at the World Wide Web (www)indiqobiosciences.com).
FXR reporter cells consisting of an FXR-responsive promoter gene functionally linked to the luciferase gene were defrosted and seeded into a 96-well plate and these cells were immediately dosed with the test compounds at different concentrations (10-0.05 μM) according to the manufacturer's protocol. […] Following this, the induction of luciferase activity, which is the measure of the agonist activity, was quantified by using luminometer (TECAN) according to the manufacturer's protocol.

The conditions of data set [2]: Xiao et al., 2017; cited from earlier work.
In data set [3] the test system is SHP expression in Huh7 cells. Kind of data set: qPCR of SHP (NR0B2) expression in Huh7 cells. The format is cell-based, human. The settings on record: Huh7, 24 hours. How it is done:
(§1) To assess specific changes in gene expression in response to the test compounds, precise quantification and analysis by quantitative real-time PCR (qPCR) was carried out. Mammalian tissue culture experiments involved seeding Hepatocellular carcinoma, (Huh7) cells, in 6 well plates at a concentration of 1×10^6 cells/well and incubating for 24 hours at 37° C. to allow attachment.
(§2) Testing in Huh7 cells and HepG2 cells was also carried out for Compound 14 in the same way as for Compound 2.
Total RNA was extracted using the RNAQUEOUS™ Total RNA Isolation kit (Ambion) and all reagents were provided in the kit or prepared according to manufacturer's instructions. For cultured cells, the medium was removed and cells were washed with 1×PBS to remove cellular debris and residual medium. Total RNA was extracted from fresh cells. For 1×10^6 cells, 350 μl lysis buffer was added directly to the well and cells were harvested by scraping with a pipette tip. Lysed cells were combined with an equal volume of 64% ethanol and mixed thoroughly by pipetting. The ethanol-lysate mix was transferred to a column and spun at 12,000×G for 1 minute and flow through discarded. […]
(§3) The ready-to-use reaction mastermix, ITAQ™ Universal SYBR® Green Supermix (Biorad) was used for all qPCR reactions. […] Melting curve analysis was performed straight after each run by increasing the temperature from 60° C. to 95° C. in 0.3° C. increments, and measuring fluorescence dissociation.
To quantify gene expression, the baseline-corrected Ct value was determined automatically by the qPCR system software (Applied Biosystems). Relative changes in gene expression were determined by the Livak, or ΔΔCt, method whereby the Ct values of target genes were normalised to Ct value of the reference gene, for both the samples treated with vehicle/untreated samples (control) and the samples treated with compound (test samples). […] And finally, the expression ratio was calculated using the equation 2^−ΔΔC^t. […]

For data set [4], the system named is OSTα expression in Huh7 cells. As to the kind of experiment: qPCR of OSTα expression in Huh7 cells. The format is cell-based, human. To be noted: Huh7, 24 hours. How it is done: as §1, §2
Total RNA was extracted using the RNAQUEOUS™ Total RNA Isolation kit (Ambion) and all reagents were provided in the kit or prepared according to manufacturer's instructions. […]
as §3
(§4) To quantify gene expression, the baseline-corrected Ct value was determined automatically by the qPCR system software (Applied Biosystems). Relative changes in gene expression were determined by the Livak, or ΔΔCt, method whereby the Ct values of target genes were normalised to Ct value of the reference gene, for both the samples treated with vehicle/untreated samples (control) and the samples treated with compound (test samples). […]
For orientation: Quantitative PCR measures a nucleic acid by following its amplification.

The test system of data set [5] is TGFβ1 expression in HepG2 cells. Kind of data set: qPCR of TGFβ1 expression in HepG2 cells. Type of data set: cell-based, human. The settings on record: HepG2, 24 hours. How it is done:
(§5) Compound 2 and OCA were also tested in the human hepatocellular carcinoma cell line, HepG2.
as §2
(§6) Total RNA was extracted using the RNAQUEOUS™ Total RNA Isolation kit (Ambion) and all reagents were provided in the kit or prepared according to manufacturer's instructions. For cultured cells, the medium was removed and cells were washed with 1×PBS to remove cellular debris and residual medium. Total RNA was extracted from fresh cells. For 1×10^6 cells, 350 μl lysis buffer was added directly to the well and cells were harvested by scraping with a pipette tip. […]
as §3, §4

Data set [6] relates to CYP7A1 expression in HepG2 cells. As to the kind of experiment: qPCR of CYP7A1 expression in HepG2 cells. The settings on record: HepG2, 24 hours. The format is cell-based, human. The method, then:
as §5, §2, §6, §3, §4

A further data set addresses T2, TGR5 (GPBAR1) receptor (Homo sapiens, UniProt Q8TDU6).
T2 sequence (Q8TDU6 1-330): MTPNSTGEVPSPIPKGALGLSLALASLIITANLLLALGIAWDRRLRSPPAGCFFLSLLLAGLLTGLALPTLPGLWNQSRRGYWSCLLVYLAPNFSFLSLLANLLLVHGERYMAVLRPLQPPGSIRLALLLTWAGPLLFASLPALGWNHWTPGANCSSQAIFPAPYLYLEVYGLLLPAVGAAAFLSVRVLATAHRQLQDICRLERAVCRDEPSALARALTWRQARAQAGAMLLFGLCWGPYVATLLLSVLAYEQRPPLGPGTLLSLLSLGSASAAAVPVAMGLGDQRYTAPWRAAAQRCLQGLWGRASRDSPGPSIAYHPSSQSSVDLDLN
Kind of data set: HITHUNTER cAMP assay, agonist mode, TGR5 receptor. To be noted: for Emax: read-out: Max Response; for agonist activity at the TGR5 receptor: statement in words on Table 2. In general terms: Cyclic AMP is a second messenger, typically raised through Gs and lowered through Gi signalling.

pEC50: −log10 of the molar value. Where two headings read alike, the source gives them in different places.

Method for TGR5 (GPBAR1) receptor: 1. cAMP Hunter cell lines were expanded from freezer stocks according to standard procedures.
Cells were seeded in a total volume of 20 μL into white walled, 384-well microplates and incubated at 37° C. for the appropriate time prior to testing.
For agonist determination, cells were incubated with sample to induce response.
Media was aspirated from cells and replaced with 15 μL 2:1 HBSS/10 mM Hepes:cAMP XS+ Ab reagent.
Intermediate dilution of sample stocks was performed to generate 4× sample in assay buffer.
5 μL of 4× sample was added to cells and incubated at 37° C. or room temperature for 30 or 60 minutes. Vehicle concentration was 1%.
After appropriate compound incubation, assay signal was generated through incubation with 20 μL cAMP XS+ ED/CL lysis cocktail for one hour followed by incubation with 20 μL cAMP XS+ EA reagent for three hours at room temperature.
Microplates were read following signal generation with a PerkinElmer ENVISION™ instrument for chemiluminescent signal detection.
Compound activity was analyzed using CBIS data analysis suite (ChemInnovation, CA).
For Gs agonist mode assays, percentage activity is calculated using the following formula, where RLU is an abbreviation for relative light units:

Broadly, the EC50 is the midpoint of the concentration-response curve. Low readings indicate an effect from little substance, high ones a need for much substance. In data set [1] (FXR reporter cells, 24 h incubation, normalized against EC50 of GW4064, assigned as […] nM), `CC[C@H]1[C@@H](O)[C@@H]2[C@H](CC[C@]3(C)[C@@H]([C@H](C)CCC(=O)NS(=O)(=O)c4ccc(C(F)(F)F)cc4)CC[C@@H]23)[C@@]2(C)CC[C@@H](O)[C@H](F)[C@@H]12` [Compound 18, N-(3α,7α-Dihydroxyl-4β-fluoro-6α-ethyl-5β-cholan-24-oyl)-4-trifluoromethylphenyl sulfonamide] yielded an EC50 of 15 nM. In data set [1], this compound returned an Efficacy of 148%. The “liver:plasma concentration ratio” value in data set [2] is “highest”.
The term pEC50 denotes −log10 of the EC50, conventionally taken in molar units. A high value points to a small EC50. As to `CC[C@@H]1[C@@H]2[C@@H](F)[C@H](O)CC[C@]2(C)C2CC[C@@]3(C)C(CCC3[C@H](C)CCNC(=O)NS(=O)(=O)c3ccccc3)C2[C@@H]1O` (stereo partly drawn) [Compound 2, N,N′-(3α,7α-Dihydroxyl-4β-fluoro-6α-ethyl-24-nor-5β-cholan-23-yl)-benzene sulfonyl urea], the pEC50 is 7.62 in data set [1] and less than 4.00 at TGR5 (GPBAR1) receptor. For the same compound, the Efficacy in data set [1] is listed as 195%. Also, the “SHP expression levels increased” value was 1.5 times in data set [3] (compound at EC50 concentration) and 2.5 times in data set [3] (higher value, printed again as 'EC50 concentration'). In addition, the “Ostα mRNA increase in expression” value in data set [4] (compound at EC50 concentration) was 11 fold; in data set [4] (compound at EC90 concentration), 18 fold. For the same compound, the TGFβ1 expression levels entry in data set [5] (compound at its EC50 concentration) is reported as “significant downregulation”. Moreover, in data set [6] (with increasing concentrations of compound), the CYP7A1 expression entry is on record as “downregulated”. Also, the Emax at TGR5 (GPBAR1) receptor came to 0%. Also, on TGR5 (GPBAR1) receptor, the “agonist activity at the TGR5 receptor” value is “neither Compound 2 nor Compound 14 has agonist activity at the TGR5 receptor”.
With `CC[C@H]1[C@@H](O)[C@@H]2[C@H](CC[C@]3(C)[C@@H]([C@H](C)CCC(=O)NS(=O)(=O)c4ccc(OC(F)(F)F)cc4)CC[C@@H]23)[C@@]2(C)CC[C@@H](O)[C@H](F)[C@@H]12` [Compound 14, N-(3α,7α-Dihydroxyl-4β-fluoro-6α-ethyl-5β-cholan-24-oyl)-p-trifluoromethoxy benzene sulfonamide], in data set [3] (compound at its EC90 concentration), the SHP expression levels result is “more than doubled”. Also, in data set [5] (with increasing compound concentrations), the TGFβ1 expression entry is “decline”. In addition, the CYP7A1 expression entry in data set [6] (compound at the EC50 concentration, versus vehicle control cells) is on record as “significantly decreased”. In addition, on TGR5 (GPBAR1) receptor, the pEC50 is less than 4.00, the Emax amounted to 0% and the “agonist activity at the TGR5 receptor” value is recorded as “neither Compound 2 nor Compound 14 has agonist activity at the TGR5 receptor”.
